In patent US20020018762A1, “Utilizing camptotheca products for termite control” (priority 2000, published 2002):
Like-named read-outs stand apart in the source and are kept apart here.

Experiments:
subterranean termites = details: for Damage to the treated wood sample: 4-week observation period; for Termites dead within 24 hours: of 30 termites
Protocol: 180 active subterranean termites, were grown in 9 cm Petri dishes in the dark with 30 termites in each of six dishes. In each dish, a filter paper is on the bottom to retain moisture along with a piece of treated southern yellow pine wood (relatively fresh, 3×3×7 cm). The wood was treated with one of the following natural products isolated from Camptotheca acuminata or water (as control) for 30 minutes and then dried: (1) pure CPT (>97%) (3.8 mg/l=3.8 ppm, with water as the solvent); (2) OHCPT (10-hydroxycamptothecin: 3.8 mg/l=3.8 ppm, with water as the solvent); (3) raw extraction of CPTs from young tissues (alkaloids: 8.75 mg/l=8.75 ppm, with 95% ethanol as the solvent); (4) flavonoids (13.9 mg/l=13.9 ppm with water as the solvent); (5) ethanol (95%); and (6) water (control). The termites and wood condition were checked and recorded every hour for the first 12 hours and every 8 hrs thereafter. The observation period was 4 weeks (May 20 to Jun. 17, 2000).

[1] = Effect of the particleboard process on CPT content (FIG. 4); assay type: physicochemical; details: heat and pressure pressing
Text: Particleboard is an engineered wood product used as core material in the construction of home and office furniture, shelving and kitchen cabinets, as well as commercial and institutional fixtures. The major source for the manufacture of particleboard is southern yellow pine. Termite-resistant particleboard is not available. The present invention provides a method of preparing termite-resistant particleboards by including 30-70% Camptotheca wood in combination with currently-existing particleboard materials, e.g., pine, in a process as shown in Example 6. […] Similarly, the CPT content 260 in the raw material from bark and wood 290 and the particleboard from bark and wood 300 remained the same after the particleboard process.
Termite-resistant particleboards were prepared in accordance with the invention, using southern yellow pine mixed with natural Camptotheca acuminata wood after extraction of flavonoids. Six 5-year-old Camptotheca acuminata trees were harvested. The wood materials were classified into: trunk wood without bark, trunk wood with bark, branch wood without bark, and branch wood with bark. The sample materials were chipped and milled into uniformly small particles (20-30 mesh) and soaked in water for a week. The southern yellow pine wood was prepared in the same size as the control sample. […]

[2] = test system: subterranean termites (Reticultitermes virginicus)
Protocol: 60 active subterranean termites (Reticultitermes virginicus) were grown in 9 cm Petri dishes in dark with 15 termites (10 soldiers and 5 workers) in each of four dishes. In each dish, a filter paper is placed on the bottom of the dish to retain moisture along with a piece of treated southern yellow pine wood (decayed, 3×3×7 cm). The wood was treated with one of the following natural products isolated from Camptotheca acuminata or water (as control) for 30 minutes and then dried: (1) pure CPT (>97%) (camptothecin, 3.8 mg/l=3.8 ppm, with water as the solvent); (2) raw extraction of CPTs from young tissues (alkaloids: 8.75 mg/l=8.75 ppm, with 95% ethanol as the solvent); (3) flavonoids (13.9 mg/l=13.9 ppm with water as the solvent); and (4) water (control). The termites and wood condition were checked and recorded every hour for the first 12 hours and every 8 hrs thereafter. The observation period was 4 weeks (May 17 to Jun. 14, 2000).

[3] = test system: Masson pine caterpillar (Dendrolimus punctatus); details: cited from earlier work
[4] = test system: termites (including drywood termite, Incistermes snyderi); experiment: Field test of termite resistance of sprayed southern yellow pine boards (Example 3); assay type: in vivo
Protocol: There were 4 treatments including 3 pieces of sound southern yellow pine boards (30×9×4 cm) each. The wood was treated with either a natural product isolated from Camptotheca acuminata or water as a control. […] The boards were randomly placed on the ground where no termites were observed. The wood condition and termite activity were checked and recorded every week beginning May 20, 2000.

[5] = Water soak of Camptotheca stakes, HPLC analysis of extracted flavonoids and CPTs (Example 5, FIG. 3); assay type: physicochemical
Text: For example, the Camptotheca wood containing CPTs (CPT concentrations: 30-100 ppm) after extraction of flavonoids may be used in preparation of termite-resistant wood products such as composition boards, particleboards, and fiberboards. FIG. 3 illustrates the effect of a water soak on the content of flavonoids and CPT over time.
In July 2000, we conducted an experiment with several pieces of Camptotheca stakes (c. 10 cm in length and 3 cm in diameter) soaked in nanopure water. A month later, water samples were collected from the water with stakes and only water (as control) for HPLC analysis.

[6] = 15 termites per dish, wood treated 30 min, CPT 3.8 ppm, raw CPTs 8.75 ppm, flavonoids 13.9 ppm
[7] = 30 termites per dish, CPT 3.8 ppm, OHCPT 3.8 ppm, raw CPTs 8.75 ppm, flavonoids 13.9 ppm, ethanol 95%

## CCO [Ethanol, ethanol]
Subterranean termites
  Damage to the treated wood sample: No wood damage
Subterranean termites; in vivo
  Mortality within 1 week: 100%
  Mortality within 4 weeks: 100%

## CC[C@@]1(O)C(=O)OCc2c1cc1n(c2=O)Cc2cc3ccccc3nc2-1 [CPT, camptothecin]
[1]
  Effect of particleboard process on CPT content: no significant effect
[2]; 4-week observation period
  Damage to the treated wood sample: no obvious damage
[2]; 15 termites per dish, CPT 3.8 ppm, raw CPTs 8.75 ppm
  Time within which termite mortality was 100%: ≤ 4 days
[2]; [6]
  Mortality within 1 week: 100%
  Mortality within 4 weeks: 100%
[2]; 15 termites per dish, wood treated 30 min, CPT 3.8 ppm, raw CPTs 8.75 ppm, flavonoids 13.9 ppm, listed as purified CPT
  Mortality within 1 week: all termites dead
[2]; CPT 3.8 ppm
  Time after which termites became inactive: 6 h
[2]; of total 15 termites, CPT 3.8 ppm
  Termites dead within 36 hours: Six
[2]; summary of Examples 1 and 2
  Termite damage of treated pine stakes within a week: damage free
Subterranean termites
  Damage to the treated wood sample: no obvious damage
  Termites dead within 24 hours: 12
Subterranean termites; 30 termites per dish
  Time within which termite mortality was 100%: ≤ 5 days
Subterranean termites; [7]
  Mortality within 1 week: 100%
  Mortality within 4 weeks: 100%
Subterranean termites; CPT 3.8 ppm
  Time after which all termites became inactive: 10 h
Subterranean termites; in vivo
  Termite behaviour toward the treated wood (repellency / attraction): avoided getting close to the wood after the initial contract
[3]; after treatment with 0.05% CPT
  Hatchability of eggs: decreased
[3]; after treatment with CPT
  Mortality of insect larvae, pupae, and adults: increased
[4]; field, three months, CPT 380 ppm, raw CPTs 8.75 ppm, flavonoids 13.9 ppm
  Termite damage of treated wood (based on weight): no termite damage
[4]; within 3 months
  Termite damage of treated southern yellow pine lumber in the field: damage-free
[5]; day 7
  Extraction by water soak at day 7 (FIG. 3): not extracted
[5]; day 30
  Extraction by water soak at day 30 (FIG. 3): remains water insoluble

## CC[C@@]1(O)C(=O)OCc2c1cc1n(c2=O)Cc2cc3cc(O)ccc3nc2-1 [OHCPT, 10-hydroxycamptothecin]
Subterranean termites
  Damage to the treated wood sample: no obvious damage
  Termites dead within 24 hours: 16
Subterranean termites; 30 termites per dish
  Time within which termite mortality was 100%: ≤ 6 days
Subterranean termites; [7]
  Mortality within 1 week: 100%
  Mortality within 4 weeks: 100%
